Experimental data published in ChEMBL document CHEMBL1201862, “PubChem BioAssay data set” (2004).
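Method: 48-hour compound exposure of cells in 96-well plates, five concentrations, linear interpolation of endpoints. GI50 is the concentration that inhibits growth by half.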 The source made the active and inactive calls. Cut-off read from the data, not from the text of the source: active = GI50 up to about 1.1 µM and inactive = higher.

Assays:
Assay in all cases: NCI-60 cell line screen, 48 h
NCI-H23 = system: NCI-H23
SK-OV-3 = system: SK-OV-3
TK-10 = system: TK-10
NCI-H226 = system: NCI-H226
DU-145 = system: DU-145
OVCAR-3 = system: OVCAR-3
SK-MEL-2 = system: SK-MEL-2
T47D = system: T47D
UACC-62 = system: UACC-62
COLO 205 = system: COLO 205
ACHN = system: ACHN
HL-60 = system: HL-60
PC-3 = system: PC-3
NCI/ADR-RES = system: NCI/ADR-RES
HCT-15 = system: HCT-15
LOX IMVI = system: LOX IMVI
Malme-3M = system: Malme-3M
NCI-H522 = system: NCI-H522
MOLT-4 = system: MOLT-4
CCRF-CEM = system: CCRF-CEM

Structure (SMILES)	GI50 (NCI-H23)	GI50 (SK-OV-3)	GI50 (TK-10)	GI50 (NCI-H226)	GI50 (DU-145)	GI50 (OVCAR-3)	GI50 (SK-MEL-2)	GI50 (T47D)	GI50 (UACC-62)	GI50 (COLO 205)	GI50 (ACHN)	GI50 (HL-60)	GI50 (PC-3)	GI50 (NCI/ADR-RES)	GI50 (HCT-15)	GI50 (LOX IMVI)	GI50 (Malme-3M)	GI50 (NCI-H522)	GI50 (MOLT-4)	GI50 (CCRF-CEM)
Oc1cc(O)c2c(c1)OC(c1ccc(O)c(O)c1)C(O)C2c1c(O)cc(O)c2c1OC(c1ccc(O)c(O)c1)C(O)C2 (configuration not stated)	> 100 µM (inactive)	> 100 µM (inactive)	> 100 µM (inactive)	> 100 µM (inactive)	> 100 µM (inactive)	> 100 µM (inactive)	> 100 µM (inactive)	> 100 µM (inactive)	> 100 µM (inactive)	> 100 µM (inactive)	> 100 µM (inactive)	0.0323 µM (active)	> 100 µM (inactive)	> 100 µM (inactive)	> 100 µM	> 100 µM (inactive)	> 100 µM (inactive)	> 100 µM (inactive)	–	–
CN(C)CCCNC(=O)CCNC(=O)c1cc(NC(=O)c2cc(NC(=O)c3cc(NC(=O)c4nc(NC(=O)CCCNC(=O)c5cc(NC(=O)c6cc(NC(=O)c7cc(NC(=O)c8nccn8C)cn7C)cn6C)cn5C)cn4C)cn3C)cn2C)cn1C	> 100 µM (inactive)	> 100 µM (inactive)	> 100 µM (inactive)	> 100 µM (inactive)	> 100 µM (inactive)	> 100 µM (inactive)	> 100 µM (inactive)	> 100 µM (inactive)	–	> 100 µM (inactive)	> 100 µM (inactive)	> 100 µM (inactive)	> 100 µM (inactive)	> 100 µM (inactive)	> 100 µM	> 100 µM (inactive)	> 100 µM (inactive)	> 100 µM (inactive)	> 100 µM (inactive)	> 100 µM (inactive)
Cc1cc2c(Br)cc(Br)c(O)c2nc1C(=O)c1ccccc1	13.1 µM (inactive)	–	28.4 µM (inactive)	> 51.1 µM (inactive)	17 µM (inactive)	20.3 µM (inactive)	> 61.1 µM (inactive)	8.17 µM (inactive)	9.59 µM (inactive)	21.4 µM (inactive)	20.8 µM (inactive)	4.4 µM (inactive)	13.4 µM (inactive)	4.01 µM (inactive)	14 µM	10.4 µM (inactive)	33.2 µM (inactive)	13.5 µM (inactive)	24.3 µM (inactive)	8.11 µM (inactive)
Cc1ccc(/C=c2\cc3oc(=O)c4cccc(c4-3)c2=O)cc1	> 100 µM (inactive)	> 100 µM (inactive)	> 100 µM (inactive)	–	> 100 µM (inactive)	72.1 µM (inactive)	> 100 µM (inactive)	> 100 µM (inactive)	> 100 µM (inactive)	> 100 µM (inactive)	> 100 µM (inactive)	39.1 µM (inactive)	> 100 µM (inactive)	> 100 µM (inactive)	> 100 µM	61.4 µM (inactive)	> 100 µM (inactive)	38.1 µM (inactive)	> 10 µM (inactive)	19.6 µM (inactive)
C=CCN1C(=O)/C(=C/c2ccc(C)cc2)NC1=S	57.5 µM (inactive)	> 100 µM (inactive)	> 100 µM (inactive)	88.3 µM (inactive)	> 100 µM (inactive)	> 100 µM (inactive)	> 100 µM (inactive)	67.1 µM (inactive)	60.1 µM (inactive)	63.5 µM (inactive)	> 100 µM (inactive)	20 µM (inactive)	> 100 µM (inactive)	81.7 µM (inactive)	> 100 µM	63.2 µM (inactive)	–	43 µM (inactive)	27.1 µM (inactive)	33 µM (inactive)
Cc1cc(=O)oc2c(CNC(CC(C)C)C(=O)O)c(O)ccc12 (configuration not stated)	> 100 µM (inactive)	> 100 µM (inactive)	> 100 µM (inactive)	> 100 µM (inactive)	> 100 µM (inactive)	> 100 µM (inactive)	> 100 µM (inactive)	> 100 µM (inactive)	> 100 µM (inactive)	> 100 µM (inactive)	> 100 µM (inactive)	> 100 µM (inactive)	> 100 µM (inactive)	> 100 µM (inactive)	> 100 µM	> 100 µM (inactive)	87.5 µM (inactive)	> 100 µM (inactive)	> 100 µM (inactive)	–
Cc1ccc([N+](=O)[O-])cc1S(=O)(=O)Nc1ccc(C2=NN(c3ccc([N+](=O)[O-])cc3[N+](=O)[O-])C(c3cccs3)C2)cc1 (configuration not stated)	18.7 µM (inactive)	26.1 µM (inactive)	30 µM (inactive)	22.2 µM (inactive)	25.8 µM (inactive)	16.1 µM (inactive)	12.1 µM (inactive)	16.9 µM (inactive)	–	23.2 µM (inactive)	22.4 µM (inactive)	23.1 µM (inactive)	25.9 µM (inactive)	17.2 µM (inactive)	15.4 µM	18.3 µM (inactive)	25.9 µM (inactive)	10.5 µM (inactive)	13.9 µM (inactive)	24.5 µM (inactive)
Oc1c(CN2CCOCC2)ccc2cccnc12	> 10 µM (inactive)	> 10 µM (inactive)	> 10 µM (inactive)	> 10 µM (inactive)	> 10 µM (inactive)	> 10 µM (inactive)	> 10 µM (inactive)	7.41 µM (inactive)	–	> 10 µM (inactive)	> 10 µM (inactive)	–	> 10 µM (inactive)	2.34 µM (inactive)	4.59 µM	> 10 µM (inactive)	> 10 µM (inactive)	2.62 µM (inactive)	4.11 µM (inactive)	2.54 µM (inactive)
CCN1C(c2ccccc2)=CC(c2ccccc2)(C(Cl)(Cl)Cl)C=C1c1ccccc1	8.81 µM (inactive)	–	17.7 µM (inactive)	19.2 µM (inactive)	14.8 µM (inactive)	7 µM (inactive)	–	0.44 µM (active)	–	–	24.9 µM (inactive)	1.1 µM (active)	20.6 µM (inactive)	40.1 µM (inactive)	42.9 µM	8.45 µM (inactive)	4.5 µM (inactive)	5.69 µM (inactive)	10.9 µM (inactive)	5.58 µM (inactive)
CN(C)Cc1cc(C(=O)/C=C/c2cccc(Cl)c2)cc(CN(C)C)c1O	14.3 µM (inactive)	–	9.2 µM (inactive)	4.31 µM (inactive)	6.3 µM (inactive)	2.67 µM (inactive)	9.25 µM (inactive)	4.18 µM (inactive)	6.56 µM (inactive)	1.77 µM (inactive)	2.99 µM (inactive)	1.69 µM (inactive)	8.99 µM (inactive)	18.5 µM (inactive)	2.84 µM	2.24 µM (inactive)	–	5.98 µM (inactive)	3.43 µM (inactive)	2.07 µM (inactive)
O=C1C(Br)=C(Br)C(=O)c2c(O)ccc(O)c21	4.67 µM (inactive)	20 µM (inactive)	2.27 µM (inactive)	28.4 µM (inactive)	12.1 µM (inactive)	5.85 µM (inactive)	26.2 µM (inactive)	2.19 µM (inactive)	11.2 µM (inactive)	1.09 µM (active)	2.48 µM (inactive)	0.168 µM (active)	15.4 µM (inactive)	12.2 µM (inactive)	2.19 µM	–	1.45 µM (inactive)	0.287 µM (active)	0.0733 µM (active)	0.189 µM (active)
CC1=NN(c2nc(N)nc(CN3CCOCC3)n2)C(C)(C)C1	> 100 µM (inactive)	> 100 µM (inactive)	> 100 µM (inactive)	> 100 µM (inactive)	> 100 µM (inactive)	> 100 µM (inactive)	> 100 µM (inactive)	> 100 µM (inactive)	26.5 µM (inactive)	60.4 µM (inactive)	31.8 µM (inactive)	15.2 µM (inactive)	> 100 µM (inactive)	> 100 µM (inactive)	> 100 µM	14.9 µM (inactive)	–	14 µM (inactive)	> 100 µM (inactive)	30.1 µM (inactive)
COC(=O)[C@]1(c2cc3ccccc3n2S(=O)(=O)c2ccccc2)CC2CCC1NC2 (some centres not stated)	15.2 µM (inactive)	16.7 µM (inactive)	31.8 µM (inactive)	14.6 µM (inactive)	16.1 µM (inactive)	17 µM (inactive)	16.7 µM (inactive)	12.2 µM (inactive)	14.5 µM (inactive)	14.4 µM (inactive)	21.7 µM (inactive)	2.85 µM (inactive)	12.1 µM (inactive)	16.6 µM (inactive)	15.6 µM	15.6 µM (inactive)	14.9 µM (inactive)	14.3 µM (inactive)	–	16.1 µM (inactive)
O=C(CCC=C(S(=O)(=O)c1ccccc1)S(=O)(=O)c1ccccc1)c1ccccc1	–	25.4 µM (inactive)	6.38 µM (inactive)	17.4 µM (inactive)	5.64 µM (inactive)	4.27 µM (inactive)	2.38 µM (inactive)	5.43 µM (inactive)	6.92 µM (inactive)	7.11 µM (inactive)	5.93 µM (inactive)	1.86 µM (inactive)	3.64 µM (inactive)	4.06 µM (inactive)	5.98 µM	3.26 µM (inactive)	4.45 µM (inactive)	2.76 µM (inactive)	3.98 µM (inactive)	–
OCC1NC(COC2OC(CO)C(O)C(O)C2O)C(O)C(O)C1O (configuration not stated)	> 100 µM (inactive)	–	> 100 µM (inactive)	> 100 µM (inactive)	> 100 µM (inactive)	> 100 µM (inactive)	> 100 µM (inactive)	> 100 µM (inactive)	> 100 µM (inactive)	> 100 µM (inactive)	> 100 µM (inactive)	> 100 µM (inactive)	> 100 µM (inactive)	> 100 µM (inactive)	> 100 µM	–	> 100 µM (inactive)	> 100 µM (inactive)	> 100 µM (inactive)	> 100 µM (inactive)
